The nature of this experiment: Inhibition of pTACE.
What is called IC50 is the concentration at which inhibition is half-maximal. A high value points to weaker potency. `Cc1cc(COc2ccc(C(=O)Nc3ccccc3C(=O)c3c[nH]c(=O)[nH]3)cc2)c2ccccc2n1` [4-((2-methylquinolin-4-yl)methoxy)-N-(2-(2-oxo-2,3-dihydro-1H-imidazole-5-carbonyl)phenyl)benzamide]: half-maximal inhibition (IC50) was put at 9 nM. Then `Cc1cc(COc2ccc(C(=O)Nc3ccccc3Cc3c[nH]c(=O)[nH]3)cc2)c2ccccc2n1` [4-((2-methylquinolin-4-yl)methoxy)-N-(2-((2-oxo-2,3-dihydro-1H-imidazol-5-yl)methyl)phenyl)benzamide], with 1600 nM. The compound `Cc1cc(COc2ccc(C(=O)Nc3ccccc3Cc3n[nH]c(=O)[nH]3)cc2)c2ccccc2n1` [4-((2-methylquinolin-4-yl)methoxy)-N-(2-((5-oxo-4,5-dihydro-1H-1,2,4-triazol-3-yl)methyl)phenyl)benzamide] yielded an IC50 of 34 nM. Then `Cc1cc(COc2ccc(C(=O)NCc3n[nH]c(=O)[nH]3)cc2)c2ccccc2n1` [4-((2-methylquinolin-4-yl)methoxy)-N-((5-oxo-4,5-dihydro-1H-1,2,4-triazol-3-yl)methyl)benzamide], with greater than 1000 nM; and `Cc1cc(COc2ccc(S(=O)(=O)NCc3n[nH]c(=O)[nH]3)cc2)c2ccccc2n1` [4-((2-methylquinolin-4-yl)methoxy)-N-((5-oxo-4,5-dihydro-1H-1,2,4-triazol-3-yl)methyl)benzenesulfonamide], with 439 nM; and `Cc1cc(COc2ccc(C(=O)Nc3ccccc3-c3[nH]c(=O)[nH]c3O)cc2)c2ccccc2n1` [N-(2-(2,5-dioxoimidazolidin-4-yl)phenyl)-4-((2-methylquinolin-4-yl)methoxy)benzamide], with 14 nM. In the case of `Cc1cc(COc2ccc(C(=O)NCC3(C)NC(=O)NC3=O)cc2)c2ccccc2n1` (stereo not drawn) [N-((4-methyl-2,5-dioxoimidazolidin-4-yl)methyl)-4-((2-methylquinolin-4-yl)methoxy)benzamide], the midpoint of inhibition, the IC50, lay at 29 nM. The same measure for `Cc1cc(COc2ccc(S(=O)(=O)NCC3(C)NC(=O)NC3=O)cc2)c2ccccc2n1` (stereo not drawn) [N-((4-methyl-2,5-dioxoimidazolidin-4-yl)methyl)-4-((2-methylquinolin-4-yl)methoxy)benzenesulfonamide]: 37 nM.

(Values after BindingDB's records for doi:10.1016/j.bmcl.2007.02.076 (Bristol-Myers Squibb Pharmaceutical Research Institute, 2007).)
